“Also recorded” adds a separate entry of the source. Where two headings read alike, the source gives them in different places. One block for each compound: values may come before it.
What was measured:
EgriGOBP2 [1] = molecular target: T1, EgriGOBP2 (Ectropis grisescens, UniProt A0A977IVV0); assay: Fluorescence competitive binding assay (1-NPN displacement) with recombinant EgriGOBP2; conditions: for binding to EgriGOBP2 (in words, displacement of 1-NPN fluorescence): non-binding ligands
Protocol: The excitation wavelength was 337 nm, and the emission spectrum ranged from 370 to 550 nm. […] The binding curves were linearized using Scatchard plots, based on fluorescence intensity values relative to the maximum fluorescence emissions.
The dissociation constants (Ki) of each ligand were calculated with the following equation: Ki = [IC50]/(1 + [1-NPN]/K1-NPN).

EgriGOBP2 [2] = molecular target: T1, EgriGOBP2; assay: Binding of fluorescent probe 1-NPN to recombinant EgriGOBP2 (binding curve, Scatchard plot); conditions: 2 µM protein in 20 mM Tris-HCl pH 7.4, 1-NPN 0–16 µM, read-out: dissociation constant (Kd) of 1-NPN
Protocol: The binding affinities of target proteins were measured with an F-7000 fluorescence spectrophotometer (Hitachi, Tokyo, Japan) using a 1 cm light path quartz cuvette, and 1-N-phenyl-naphthylamine (1-NPN) was used as a fluorescent probe. The excitation wavelength was 337 nm, and the emission spectrum ranged from 370 to 550 nm. A total of 24 volatile compounds, including host volatiles and plant essential oil-derived volatiles, were selected for fluorescence competitive binding assays (Table 2). First, the binding affinities of 1-NPN to the target proteins were determined. The protein solutions (2 µM in 20 mM Tris-HCl, pH = 7.4) were titrated with 1-NPN to final concentrations ranging from 0 to 16 µM. The binding curves were linearized using Scatchard plots, based on fluorescence intensity values relative to the maximum fluorescence emissions. Next, each ligand (at concentrations of 0–16 µM, prepared at a 1 mM stock concentration) was added to the 2 µM EgriGOBP2/1-NPN mixture, and competitive binding curves were plotted based on the fluorescence intensity values from three replicates.
The dissociation constants (Ki) of each ligand were calculated with the following equation: Ki = [IC50]/(1 + [1-NPN]/K1-NPN). […]

RpedOBP38 = system: RpedOBP38; design: method as in PMID 39835200; conditions: plant essential oil-derived volatiles with repellent activity; cited from earlier work
[3] = system: GOBP2 in Ectropis obliqua; design: method as in PMID 29543772; conditions: host odors; cited from earlier work
AgamOBP5 = system: AgamOBP5; design: method as in PMID 36921814; conditions: cited from earlier work
Sitophilus zeamais = system: Sitophilus zeamais; design: method as in PMID 31813390; conditions: cited from earlier work
[4] = system: Frankliniella occidentalis, Frankliniella intonsa, and Thrips palmi Karny; design: method as in PMID 33346361; conditions: Y-tube olfactometer bioassays; cited from earlier work
CpalOBP2 = system: CpalOBP2; design: method as in PMID 25810363; conditions: cited from earlier work
C. pallens = system: C. pallens; design: method as in PMID 25810363; conditions: glass Y-tube olfactometer; cited from earlier work
[5] = EgriGOBP2 Ki, Ki = [IC50]/(1 + [1-NPN]/K1-NPN), 2 µM EgriGOBP2/1-NPN mixture, pH 7.4
[6] = Ki = [IC50]/(1 + [1-NPN]/K1-NPN), 2 µM EgriGOBP2/1-NPN mixture, pH 7.4, read-out: EgriGOBP2 Ki
[7] = displacement of 1-NPN from 2 µM EgriGOBP2/1-NPN mixture, 20 mM Tris-HCl pH 7.4, ligand 0–16 µM, read-out: EgriGOBP2 IC50
[8] = EgriGOBP2 Ki (dash cells), “-”: no detectable Ki
[9] = cells printed as “-”: IC50 could not be calculated, read-out: EgriGOBP2 IC50 (dash cells)
[10] = “-”: no detectable Ki, read-out: EgriGOBP2 Ki (dash cells)

T1 sequence (A0A977IVV0 entry or part of it): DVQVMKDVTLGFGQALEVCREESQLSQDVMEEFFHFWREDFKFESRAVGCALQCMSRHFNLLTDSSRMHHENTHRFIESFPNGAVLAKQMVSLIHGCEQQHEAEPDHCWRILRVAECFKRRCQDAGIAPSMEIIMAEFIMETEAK

Compound: CC(C)=CCCC(C)=CC=O (mixture of isomers) [Citral]
IC50 (EgriGOBP2 [1]): 9.12 µM | Ki (EgriGOBP2 [1]; [5]): 8.23 µM

Ki (EgriGOBP2 [1]; [6]): 7.93 µM | IC50 (EgriGOBP2 [1]; [7]): 8.79 µM
Compound: C=CC(C)(O)CCC=C(C)CCC=C(C)C (mixture of isomers) [Nerolidol]

Compound: c1ccc(Nc2cccc3ccccc23)cc1 [1-NPN, 1-N-phenyl-naphthylamine]
Kd (EgriGOBP2 [2]): 9.28 µM

Ki (EgriGOBP2 [1]; [6]): 40.6 µM | IC50 (EgriGOBP2 [1]; [7]): 44.8 µM
Compound: C=CC(O)CC (centres unmarked) [1-penten-3-ol]

Compound: C=CCc1ccc(OC)cc1 [4-allylanisole]
IC50 (EgriGOBP2 [1]): 8.1 µM | Ki (EgriGOBP2 [1]; [5]): 7.31 µM

Compound: CC1=CC[C@](O)(C(C)C)CC1 [(+) -4-terpineol]
binding to RpedOBP38 (in words) (RpedOBP38): found to bind

Compound: C=C(C)[C@H]1CC=C(C)C(=O)C1 [(S)-(+)-carvone]
binding affinity to EgriGOBP2 (class in words) (EgriGOBP2 [1]): strong (strong (6 µM < Ki ≤ 22 µM)) | IC50 (EgriGOBP2 [1]; [7]): 5.36 µM

Compound: O=Cc1ccccc1 [Benzaldehyde]
competitive binding to Ectropis obliqua GOBP2 (in words) [3]: competitively bind | IC50 (EgriGOBP2 [1]): > 16 µM | Ki (EgriGOBP2 [1]; [8]): > 14.4 µM | binding to EgriGOBP2 (in words, displacement of 1-NPN fluorescence) (EgriGOBP2 [1]): negligible binding; also recorded: did not exhibit binding affinity

Ki (EgriGOBP2 [1]; [6]): 13 µM | IC50 (EgriGOBP2 [1]; [7]): 14.3 µM
Compound: CC(=O)OCc1ccccc1 [Benzyl acetate]

Compound: OCc1ccccc1 [Benzyl alcohol]
IC50 (EgriGOBP2 [1]): 30 µM | Ki (EgriGOBP2 [1]; [5]): 27 µM

Compound: Cc1ccc(C(C)C)cc1O [Carvacrol]
binding to AgamOBP5 (in words) (AgamOBP5): strong binder | IC50 (EgriGOBP2 [1]): 23.6 µM | Ki (EgriGOBP2 [1]; [5]): 21.3 µM | binding to RpedOBP38 (in words) (RpedOBP38): found to bind

Compound: C=C(C)C1CC=C(C)C(=O)C1 (centres unmarked) [Carvone]
repellency to Sitophilus zeamais (in words) (Sitophilus zeamais): strongly repellent

Compound: O=C/C=C/c1ccccc1 [Cinnamaldehyde]
IC50 (EgriGOBP2 [1]): > 16 µM | Ki (EgriGOBP2 [1]; [8]): > 14.4 µM | binding to EgriGOBP2 (in words, displacement of 1-NPN fluorescence) (EgriGOBP2 [1]): did not bind

Ki (EgriGOBP2 [1]; [6]): 13.1 µM | IC50 (EgriGOBP2 [1]; [7]): 14.5 µM
Compound: CC/C=C\CCOC(C)=O [Cis-3-hexenyl acetate]

Ki (EgriGOBP2 [1]; [6]): 14 µM | IC50 (EgriGOBP2 [1]; [7]): 15.5 µM
Compound: CC/C=C\CCOC(=O)CCCCC [Cis-3-hexenyl caproate]

binding affinity to EgriGOBP2 (class in words) (EgriGOBP2 [1]): moderate (moderate (22 µM < Ki ≤ 40 µM)) | Ki (EgriGOBP2 [1]; [6]): 18.6 µM | IC50 (EgriGOBP2 [1]; [7]): 20.6 µM
Compound: CC/C=C\CCOC(=O)CCC [Cis-3-hexenyl tyrate]

IC50 (EgriGOBP2 [1]; [9]): > 16 µM | binding to EgriGOBP2 (in words, displacement of 1-NPN fluorescence) (EgriGOBP2 [1]): negligible binding | Ki (EgriGOBP2 [1]; [10]): > 14.4 µM
Compound: CCCCCCCCCC=O [Decanal]

Compound: CCC/C=C/C=O [E-2-hexenal]
IC50 (EgriGOBP2 [1]): > 16 µM | Ki (EgriGOBP2 [1]; [8]): > 14.4 µM | binding to EgriGOBP2 (in words, displacement of 1-NPN fluorescence) (EgriGOBP2 [1]): negligible binding; also recorded: did not exhibit binding affinity

Ki (EgriGOBP2 [1]; [6]): < 10 µM | IC50 (EgriGOBP2 [1]; [7]): 9.36 µM
Compound: CC12CCC(CC1)C(C)(C)O2 [Eucalyptol]
repellent activity against three thrip species (in words) [4]: significant repellent activity

Compound: C=CCc1ccc(O)c(OC)c1 [Eugenol]
IC50 (EgriGOBP2 [1]): 9.28 µM | Ki (EgriGOBP2 [1]; [5]): 8.38 µM

Ki (EgriGOBP2 [1]; [6]): 22.3 µM | IC50 (EgriGOBP2 [1]; [7]): 24.7 µM
Compound: CC(=O)OC/C=C(\C)CCC=C(C)C [Geranyl acetate]

Compound: C=C(C)[C@@H]1CC=C(C)C(=O)C1 [L(-)-carvone]
Ki (EgriGOBP2 [1]; [6]): 11.6 µM | IC50 (EgriGOBP2 [1]; [7]): 12.9 µM | binding to RpedOBP38 (in words) (RpedOBP38): found to bind

Compound: C=CC(C)(O)CCC=C(C)C (centres unmarked) [Linalool]
IC50 (EgriGOBP2 [1]): 11.9 µM | Ki (EgriGOBP2 [1]; [5]): 10.8 µM

Compound: COC(=O)c1ccccc1O [Methyl salicylate]
competitive binding to Ectropis obliqua GOBP2 (in words) [3]: competitively bind | IC50 (EgriGOBP2 [1]): 17.3 µM | Ki (EgriGOBP2 [1]; [5]): 15.6 µM

IC50 (EgriGOBP2 [1]; [9]): > 16 µM | Ki (EgriGOBP2 [1]; [10]): > 14.4 µM
Compound: CCCCCCCCC=O [Nonanal]
binding to EgriGOBP2 (in words, displacement of 1-NPN fluorescence) (EgriGOBP2 [1]): negligible binding; also recorded: did not exhibit binding affinity

binding affinity to EgriGOBP2 (class in words) (EgriGOBP2 [1]): moderate (moderate (22 µM < Ki ≤ 40 µM)) | Ki (EgriGOBP2 [1]; [6]): 18 µM | IC50 (EgriGOBP2 [1]; [7]): 19.9 µM
Compound: C=CC(C)=CCC=C(C)C [Ocimene]

Compound: CC(C)=CCC/C(C)=C/CC/C(C)=C/CO [farnesol]
binding affinity for CpalOBP2 (in words) (CpalOBP2): strong and high binding affinities | behavioral response of C. pallens (in words) (C. pallens): significant and strong repellent behavioral responses

Ki (EgriGOBP2 [1]; [6]): 21.2 µM | IC50 (EgriGOBP2 [1]; [7]): 23.5 µM
Compound: CCCCCCO [n-hexyl alcohol]

Compound: farnesene
binding affinity for CpalOBP2 (in words) (CpalOBP2): strong and high binding affinities | behavioral response of C. pallens (in words) (C. pallens): significant and strong repellent behavioral responses

— PMC12110804, “Molecular Characterization and Functional Analysis of Odorant-Binding Proteins in Ectropis grisescens” (International Journal of Molecular Sciences, 2025)
